Reference: PubChem BioAssay AID248 (DTP/NCI, 2004)
“And” between values parts separate entries of the source, which are not always exact repeats. Equal values may be shown once. Inconclusive results and toxic doses are left out. Rule as the data show it: active = T/C of 150% or more; inactive = T/C below 125%.

Tested on: L1210 leukemia ip in BDF1 mice, survival T/C
Experiment: NCI In Vivo Anticancer Drug Screen. Data for tumor model L1210 Leukemia (intraperitoneal) in B6D2F1 (BDF1) mice
Details: endpoint: mean survival time, higher = longer survival
Procedure, shortened: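 Tumor cells were implanted, animals were treated, and survival was followed. The result divides the treated measurement by the vehicle-control measurement.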

[1] = dose: 100.0 mg/kg/injection, schedule: Q01DX001 (ip), vehicle: carboxymethylcellulose (CMC)
[2] = dose: 100.0 mg/kg/injection, schedule: Q01DX001 (ip), vehicle: saline
[3] = dose: 200.0 mg/kg/injection, schedule: Q01DX001 (ip), vehicle: carboxymethylcellulose (CMC)
[4] = dose: 200.0 mg/kg/injection, schedule: Q01DX001 (ip), vehicle: saline
[5] = dose: 400.0 mg/kg/injection, schedule: Q01DX001 (ip), vehicle: carboxymethylcellulose (CMC)
[6] = dose: 400.0 mg/kg/injection, schedule: Q01DX001 (ip), vehicle: saline
[7] = dose: 100.0 mg/kg/injection, schedule: Q01DX001 (ip), vehicle: Klucel (hydroxypropylcellulose) (HPC)
[8] = dose: 100.0 mg/kg/injection, schedule: Q04DX003 (ip), vehicle: Klucel (hydroxypropylcellulose) (HPC)
[9] = dose: 200.0 mg/kg/injection, schedule: Q01DX001 (ip), vehicle: Klucel (hydroxypropylcellulose) (HPC)
[10] = dose: 200.0 mg/kg/injection, schedule: Q04DX003 (ip), vehicle: Klucel (hydroxypropylcellulose) (HPC)
[11] = dose: 400.0 mg/kg/injection, schedule: Q01DX001 (ip), vehicle: Klucel (hydroxypropylcellulose) (HPC)
[12] = dose: 400.0 mg/kg/injection, schedule: Q04DX003 (ip), vehicle: Klucel (hydroxypropylcellulose) (HPC)
[13] = dose: 100.0 mg/kg/injection, schedule: Q01DX009 (ip), vehicle: Klucel (hydroxypropylcellulose) (HPC)
[14] = dose: 200.0 mg/kg/injection, schedule: Q01DX009 (ip), vehicle: Klucel (hydroxypropylcellulose) (HPC)
[15] = dose: 400.0 mg/kg/injection, schedule: Q01DX009 (ip), vehicle: Klucel (hydroxypropylcellulose) (HPC)
[16] = dose: 100.0 mg/kg/injection, schedule: Q04DX002 (ip), vehicle: Klucel (hydroxypropylcellulose) (HPC)
[17] = dose: 200.0 mg/kg/injection, schedule: Q04DX002 (ip), vehicle: Klucel (hydroxypropylcellulose) (HPC)
[18] = dose: 400.0 mg/kg/injection, schedule: Q04DX002 (ip), vehicle: Klucel (hydroxypropylcellulose) (HPC)
[19] = dose: 100.0 mg/kg/injection, schedule: Q01DX009 (ip), vehicle: saline with Tween-80
[20] = dose: 200.0 mg/kg/injection, schedule: Q01DX009 (ip), vehicle: saline with Tween-80
[21] = dose: 100.0 mg/kg/injection, schedule: Q04DX003 (ip), vehicle: saline with Tween-80
[22] = dose: 200.0 mg/kg/injection, schedule: Q04DX003 (ip), vehicle: saline with Tween-80
[23] = dose: 400.0 mg/kg/injection, schedule: Q04DX003 (ip), vehicle: saline with Tween-80
[24] = dose: 50.0 mg/kg/injection, schedule: Q04DX002 (ip), vehicle: saline with Tween-80
[25] = dose: 100.0 mg/kg/injection, schedule: Q04DX002 (ip), vehicle: saline with Tween-80

Measured: T/C

Cc1c(C)c2ccccc2[nH]c1=O
inactive: [1] 88 % of control | [2] 100 % of control | [3] 88 % of control | [4] 95 % of control | [5] 96 % of control | [6] 95 % of control

ClC1(Cl)C2CCC3(CC21)OCCO3 (centres undefined)
inactive: dose: 50.0 mg/kg/injection, schedule: Q04DX003 (ip), vehicle: Klucel (hydroxypropylcellulose) (HPC) 115 % of control | [7] 114 % of control | [8] 103 % of control | [9] 106 % of control | [10] 93 % of control | [11] 101 % of control | [12] 106 % of control

NC(=O)NC1CON(C(N)=O)C1=O (centres undefined)
inactive: dose: 100.0 mg/kg/injection, schedule: Q04DX002 (ip), vehicle: saline 94 % of control | dose: 200.0 mg/kg/injection, schedule: Q04DX002 (ip), vehicle: saline 112 % of control | dose: 400.0 mg/kg/injection, schedule: Q04DX002 (ip), vehicle: saline 94 % of control

Cc1ccc2c(c1)Nc1ccccc1C(=O)N2
inactive: [13] 98 % of control | [14] 93 % of control | [15] 91 % of control

CC1([N+](=O)[O-])COP(=O)(OP2(=O)OCC(C)([N+](=O)[O-])CO2)OC1 (centres undefined)
inactive: [1] 108 % of control | [3] 101 % of control | [5] 103 % of control

Cc1cccc(C(N)=S)n1
inactive: [13] 97 % of control | [14] 93 % of control

O=C1C(c2ccccc2)CN1CC1CCCCC1 (centres undefined)
inactive: [7] 98 % of control | [9] 101 % of control | [11] 95 % of control

O=C(Nc1ccccn1)Nc1cc(C(F)(F)F)ccc1Cl
inactive: [7] 98 % of control | [13] 95 % of control and 90 % of control | [16] 95 % of control and 103 % of control | [8] 108 % of control | [9] 91 % of control | [14] 92 % of control | [17] 98 % of control and 103 % of control | [10] 97 % of control | [11] 98 % of control | [15] 95 % of control | [18] 93 % of control and 97 % of control | [12] 96 % of control

COC(=O)c1cc(NC(=O)Nc2ccc(F)c(Cl)c2)cc(C(=O)OC)c1
inactive: dose: 100.0 mg/kg/injection, schedule: Q01DX009 (ip), vehicle: saline 98 % of control | dose: 200.0 mg/kg/injection, schedule: Q01DX009 (ip), vehicle: saline 98 % of control | dose: 400.0 mg/kg/injection, schedule: Q01DX009 (ip), vehicle: saline 102 % of control

O=C(Nc1ccc(S(=O)(=O)NC2CCCCC2)cc1)OC1CCCCC1
inactive: [2] 92 % of control | [4] 90 % of control | [6] 94 % of control

Nc1cc(N2CCCC2)nc(-c2ccccc2)n1
inactive: dose: 50.0 mg/kg/injection, schedule: Q01DX009 (ip), vehicle: saline with Tween-80 98 % of control | [19] 95 % of control

CN(C)C=Nc1c2c(C#N)cn(C3OC(CO)C(O)C3O)c2nc[n+]1[O-] (centres undefined)
inactive: dose: 12.5 mg/kg/injection, schedule: Q01DX005 (ip), vehicle: saline 97 % of control | dose: 12.5 mg/kg/injection, schedule: Q01DX009 (ip), vehicle: saline 104 % of control | dose: 25.0 mg/kg/injection, schedule: Q01DX005 (ip), vehicle: saline 102 % of control | dose: 25.0 mg/kg/injection, schedule: Q01DX009 (ip), vehicle: saline 104 % of control | dose: 50.0 mg/kg/injection, schedule: Q01DX005 (ip), vehicle: saline 105 % of control | dose: 50.0 mg/kg/injection, schedule: Q01DX009 (ip), vehicle: saline 109 % of control

O=c1c2c(O)cccc2oc2cccc(O)c12
inactive: [19] 95 % of control | [20] 91 % of control | dose: 400.0 mg/kg/injection, schedule: Q01DX009 (ip), vehicle: saline with Tween-80 96 % of control

Cn1c(Cl)nc2c(Cl)nc(Cl)nc21
inactive: dose: 6.25 mg/kg/injection, schedule: Q01DX009 (ip), vehicle: Klucel (hydroxypropylcellulose) (HPC) 102 % of control | dose: 12.5 mg/kg/injection, schedule: Q01DX009 (ip), vehicle: Klucel (hydroxypropylcellulose) (HPC) 102 % of control | [2] 92 % of control | [4] 94 % of control | [6] 94 % of control

COc1ccc(Cl)cc1NC(=O)N/N=C(\C)CC(C)C
inactive: [19] 91 % of control | [21] 97 % of control | [20] 91 % of control | [22] 101 % of control | [23] 101 % of control

COc1ccc(CC(C)=C(C#N)C#N)cc1OC
inactive: dose: 25.0 mg/kg/injection, schedule: Q04DX002 (ip), vehicle: saline with Tween-80 103 % of control | [24] 97 % of control | [25] 97 % of control

O=[N+]([O-])c1cccc(S(=O)(=O)NNc2ccc(Br)cc2)c1
inactive: [8] 96 % of control | [10] 93 % of control | [12] 89 % of control

ClCCOCCOc1ccccc1OCCOCCCl
inactive: [24] 100 % of control | [25] 90 % of control

OC1(C2(O)CCC2)CCC1
inactive: dose: 50.0 mg/kg/injection, schedule: Q01DX001 (ip), vehicle: carboxymethylcellulose (CMC) 98 % of control | [1] 95 % of control | [3] 95 % of control | [5] 101 % of control

COc1cccc2c1N=c1c(Cl)c3c(c(Cl)c1O2)=Nc1c(OC)cccc1O3
inactive: [8] 106 % of control | [10] 102 % of control | [12] 113 % of control

COc1ccc(C(=O)N/N=C/c2ccc(NC(C)=O)cc2)cc1
inactive: [16] 100 % of control | [17] 96 % of control | [18] 115 % of control

O=C(O)C1CCC2(CCCCC2)CC1
inactive: dose: 25.0 mg/kg/injection, schedule: Q01DX009 (ip), vehicle: water 101 % of control | dose: 50.0 mg/kg/injection, schedule: Q01DX009 (ip), vehicle: water 93 % of control | dose: 100.0 mg/kg/injection, schedule: Q01DX009 (ip), vehicle: water 98 % of control | dose: 200.0 mg/kg/injection, schedule: Q01DX009 (ip), vehicle: water 92 % of control

NC(=O)Cn1cnc2cncnc21
inactive: [21] 103 % of control | [22] 111 % of control | [23] 99 % of control

CN(C)/C(N)=N/N
inactive: dose: 15.0 mg/kg/injection, schedule: Q01DX Z (ip), vehicle: methylcellulose (MC) 113 % of control | dose: 30.0 mg/kg/injection, schedule: Q01DX Z (ip), vehicle: methylcellulose (MC) 109 % of control | dose: 60.0 mg/kg/injection, schedule: Q01DX Z (ip), vehicle: methylcellulose (MC) 100 % of control | dose: 120.0 mg/kg/injection, schedule: Q01DX Z (ip), vehicle: methylcellulose (MC) 103 % of control | dose: 125.0 mg/kg/injection, schedule: Q01DX Z (oral), vehicle: methylcellulose (MC) 90 % of control | dose: 240.0 mg/kg/injection, schedule: Q01DX Z (ip), vehicle: methylcellulose (MC) 101 % of control | dose: 250.0 mg/kg/injection, schedule: Q01DX Z (oral), vehicle: methylcellulose (MC) 101 % of control | dose: 375.0 mg/kg/injection, schedule: Q01DX Z (ip), vehicle: methylcellulose (MC) 110 % of control | dose: 480.0 mg/kg/injection, schedule: Q01DX Z (ip), vehicle: methylcellulose (MC) 107 % of control

CC/C(C#N)=C(\C)C1CC1
inactive: dose: 9.5 mg/kg/injection, schedule: Q01DX001 (ip), vehicle: other 96 % of control | dose: 19.0 mg/kg/injection, schedule: Q01DX001 (ip), vehicle: other 96 % of control | dose: 38.0 mg/kg/injection, schedule: Q01DX001 (ip), vehicle: other 104 % of control

CN(C)S(=O)(=O)c1ccc(NC(=O)OC(C)(c2ccccc2)C2CCCCC2)cc1 (centres undefined)
inactive: [2] 100 % of control | [4] 100 % of control | [6] 97 % of control

O=[N+]([O-])c1ccc(OCc2ccccc2)cc1
inactive: [21] 96 % of control | [22] 92 % of control | [23] 94 % of control
